Measurements as given in patent publication US6617354B1, “Method of stabilizing and potentiating the action of anti-angiogenic substances” (priority 2000, dated 2003).

Tests used:
[1] = system: hepatoma; assay: Hepatoma in rats; format: in vivo; details: pure fatty acid or fatty acid rich oils
[2] = system: TNF resistant L-929 tumor cells; assay: TNF resistant L-929 tumor cells in vitro; format: cell-based; details: for killing of TNF resistant L-929 tumor cells: in vitro; for sensitisation of TNF-resistant L-929 cells to TNF: prior treatment with the fatty acid
[3] = system: tumor cells; assay: Mixed culture of normal and tumor cells; format: cell-based; details: normal and tumor cells grown together
Description: (§1) Tumor cells are not only deficient in PUFAs but also have low rate(s) of lipid peroxidation, contain relatively large amounts of antioxidants such as vitamin E and superoxide dismutase (SOD). It is also believed that low rates of lipid peroxidation and consequent low amounts of lipid peroxides in the cells can contribute to an increase in the mitotic process which ultimately leads to an increase in cell proliferation. Thus, a deficiency of PUFAs, high amounts of antioxidants and the presence of low amounts of lipid peroxides in the tumor cells can contribute to the growth of tumor cells.

[4] = system: skin papilloma; assay: Skin papilloma in mice; format: in vivo; details: pure fatty acid or fatty acid rich oils
[5] = system: ascitic tumor cells; assay: Ascitic tumor cells in the peritoneum of experimental animals; format: in vivo; details: pure fatty acid or fatty acid rich oils
[6] = system: tumor cells; assay: PUFAs on tumor cells and normal cells in vitro; format: cell-based; details: for tumor cell proliferation: in vitro; for selective killing of tumor cells versus normal cells: tumor cells and normal cells in vitro
Description: as §1
Essential fatty acids are precursors of eicosanoids and are important structural components of cell membranes. They also provide the substrates for the generation of lipid peroxidation products which have an inhibitory action on cell proliferation. Tumor cells are known to have low delta-6-desaturase activity, an enzyme necessary for the desaturation of dietary linoleic acid (LA, 18:2, n-6) and alpha-linolenic acid (ALA, 18:3, n-3) to their respective products. […] This selective tumoricidal action of fatty acids seems to be mediated by free radicals and lipid peroxides.

[7] = system: tumor cells; assay: Potentiation of anti-cancer drugs by PUFAs in tumor cells; format: cell-based; details: combination with the fatty acid
[8] = system: KB-chR 8-5 cells; assay: Vincristine resistant KB-8-5 tumor cells; format: cell-based
[9] = system: bone marrow cells; assay: Side effects of gamma-radiation and cis-platinum to bone marrow cells of mice; format: in vivo
[10] = system: subcutaneous hemangioendothelioma; details: mice with subcutaneous hemangioendothelioma and disseminated intravascular coagulopathy; cited from earlier work
[11] = system: E-selectin; details: proliferating endothelial cells; cited from earlier work
[12] = biological target: T1, alpha/beta sub-units of ATP synthase (Homo sapiens, UniProt P06576+P25705); details: human umbilical vein endothelial cells; cited from earlier work
T1 construct: Using human umbilical endothelial vein endothelial cells; endogenous in cells; host or cells: human umbilical vein endothelial cells
T1 sequence (P25705 44-553): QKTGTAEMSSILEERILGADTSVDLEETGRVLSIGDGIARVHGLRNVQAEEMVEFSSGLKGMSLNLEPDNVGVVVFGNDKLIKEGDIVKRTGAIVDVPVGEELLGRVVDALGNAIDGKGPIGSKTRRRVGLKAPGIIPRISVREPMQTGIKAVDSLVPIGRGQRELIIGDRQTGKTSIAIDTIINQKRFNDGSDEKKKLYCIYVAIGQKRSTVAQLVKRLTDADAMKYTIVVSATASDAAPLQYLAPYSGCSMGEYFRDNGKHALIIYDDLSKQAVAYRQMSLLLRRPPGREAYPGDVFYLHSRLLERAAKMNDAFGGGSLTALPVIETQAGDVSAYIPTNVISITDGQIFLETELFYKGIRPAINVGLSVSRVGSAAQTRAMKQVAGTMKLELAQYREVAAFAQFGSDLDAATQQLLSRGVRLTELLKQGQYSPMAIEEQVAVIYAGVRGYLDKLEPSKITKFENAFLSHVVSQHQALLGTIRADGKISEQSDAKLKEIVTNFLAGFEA
T1 sequence (P06576 48-529): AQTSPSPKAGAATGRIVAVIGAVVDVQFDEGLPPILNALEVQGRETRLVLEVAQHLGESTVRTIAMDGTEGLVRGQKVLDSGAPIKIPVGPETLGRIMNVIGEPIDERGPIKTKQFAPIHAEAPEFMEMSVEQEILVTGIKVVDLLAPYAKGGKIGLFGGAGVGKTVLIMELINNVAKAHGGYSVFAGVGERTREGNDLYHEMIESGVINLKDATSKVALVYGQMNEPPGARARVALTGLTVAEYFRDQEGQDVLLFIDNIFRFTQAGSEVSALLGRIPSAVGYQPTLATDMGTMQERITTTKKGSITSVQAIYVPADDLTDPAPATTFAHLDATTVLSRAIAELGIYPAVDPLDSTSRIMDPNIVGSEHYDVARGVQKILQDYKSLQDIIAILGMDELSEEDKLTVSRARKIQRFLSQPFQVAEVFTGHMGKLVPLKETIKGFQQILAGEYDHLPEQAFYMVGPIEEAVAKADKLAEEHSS
T1 sequence (P36542 26-298 partner): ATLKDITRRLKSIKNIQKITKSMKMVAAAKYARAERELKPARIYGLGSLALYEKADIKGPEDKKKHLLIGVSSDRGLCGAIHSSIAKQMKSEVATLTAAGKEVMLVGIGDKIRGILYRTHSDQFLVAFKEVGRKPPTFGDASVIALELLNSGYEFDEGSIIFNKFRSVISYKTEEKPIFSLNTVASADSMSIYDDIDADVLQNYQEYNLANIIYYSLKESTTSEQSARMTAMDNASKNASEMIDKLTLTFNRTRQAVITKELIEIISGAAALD
T1 sequence (P30049 23-168 partner): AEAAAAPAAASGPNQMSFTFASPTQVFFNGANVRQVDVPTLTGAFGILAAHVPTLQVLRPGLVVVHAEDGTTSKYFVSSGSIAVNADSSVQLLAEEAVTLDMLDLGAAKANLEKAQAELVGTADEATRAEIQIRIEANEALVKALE
T1 sequence (P56381 2-51 partner limits assumed): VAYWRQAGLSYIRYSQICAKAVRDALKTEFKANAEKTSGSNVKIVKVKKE

[13] = system: corneal plasminogen synthesis; details: cornea; cited from earlier work
[14] = system: tumor cells; details: cited from earlier work

Compound: CCCCC/C=C\C/C=C\C/C=C\C/C=C\CCCC(=O)O [AA, arachidonic acid]
- formation and growth of hepatoma [1]: inhibit the growth
- killing of TNF resistant L-929 tumor cells [2]: able to kill
- sensitisation of TNF-resistant L-929 cells to TNF [2]: rendered TNF sensitive
- selective tumoricidal action in mixed culture [3]: effective to some extent
- growth of skin papilloma [4]: inhibit the growth
- growth of ascitic tumor cells in the peritoneum [5]: inhibit the growth
- tumor cell proliferation [6]: decrease tumor cell proliferation
- selective killing of tumor cells versus normal cells [6]: only tumor cells are killed
- cellular uptake of anti-cancer drugs by the tumor cells [7]: enhance the cellular uptake
- cytotoxic action of doxorubicin, vincristine and cis-platinum [7]: augmented
- sensitisation of vincristine resistant KB-8-5 cells to vincristine [8]: made sensitive

Compound: CC/C=C\C/C=C\C/C=C\CCCCCCCC(=O)O [ALA, alpha-linolenic acid]
- selective killing of tumor cells versus normal cells [6]: only tumor cells are killed

Compound: CCCCC/C=C\C/C=C\C/C=C\CCCCCCC(=O)O [DGLA, dihomo-GLA]
- formation and growth of hepatoma [1]: inhibit the growth
- killing of TNF resistant L-929 tumor cells [2]: able to kill
- sensitisation of TNF-resistant L-929 cells to TNF [2]: rendered TNF sensitive
- growth of skin papilloma [4]: inhibit the growth
- growth of ascitic tumor cells in the peritoneum [5]: inhibit the growth
- tumor cell proliferation [6]: decrease tumor cell proliferation
- selective killing of tumor cells versus normal cells [6]: only tumor cells are killed
- cellular uptake of anti-cancer drugs by the tumor cells [7]: enhance the cellular uptake
- cytotoxic action of doxorubicin, vincristine and cis-platinum [7]: augmented
- side effects of gamma-radiation and cis-platinum to bone marrow cells [9]: prevent or ameliorate the side effects
- sensitisation of vincristine resistant KB-8-5 cells to vincristine [8]: made sensitive

Compound: CC/C=C\C/C=C\C/C=C\C/C=C\C/C=C\C/C=C\CCC(=O)O [DHA, docosahexaenoic acid]
- cytotoxic action of doxorubicin, vincristine and cis-platinum [7]: augmented

Compound: CC/C=C\C/C=C\C/C=C\C/C=C\C/C=C\CCCC(=O)O [EPA, eicosapentaenoic acid]
- cytotoxic action of doxorubicin, vincristine and cis-platinum [7]: augmented
- side effects of gamma-radiation and cis-platinum to bone marrow cells [9]: prevent or ameliorate the side effects

Compound: CCCCC/C=C\C/C=C\C/C=C\CCCCC(=O)O [GLA, gamma-linolenic acid]
- formation and growth of hepatoma [1]: inhibit the growth
- killing of TNF resistant L-929 tumor cells [2]: able to kill
- growth of ascitic tumor cells in the peritoneum [5]: inhibit the growth
- tumor cell proliferation [6]: decrease tumor cell proliferation
- cellular uptake of anti-cancer drugs by the tumor cells [7]: enhance the cellular uptake
- cytotoxic action of doxorubicin, vincristine and cis-platinum [7]: augmented
- side effects of gamma-radiation and cis-platinum to bone marrow cells [9]: prevent or ameliorate the side effects

Compound: CCCCC/C=C\C/C=C\CCCCCCCC(=O)O [LA, linoleic acid]
- selective killing of tumor cells versus normal cells [6]: only tumor cells are killed

Compound: CC\C=C/C=C/C=C/C=C\CCCCCCCC(=O)O [cis-parinaric acid]
- selective killing of tumor cells versus normal cells [6]: only tumor cells are killed

Compound: angiostatin®
- size of the tumor [10]: significant reduction
- survival [10]: increased survival
- effect on expression of E-selectin [11]: 4 to 5 fold
- binding to alpha/beta sub-units of ATP synthase [12]: bound in a concentration-dependent, saturable manner

Compound: interleukin-6: cytokine
- decrease of corneal plasminogen synthesis [13]: 40%

Compound: vitamin E
- free radical generation and lipid peroxidation generated by PUFAs like GLA, EPA and DHA [14]: completely inhibit
